Measurements reported in patent US20060167271A1, “Purified compounds that inhibit intracellular alphax4/paxillin binding” (priority 2002, published 2006).
pIC50: −log10 of the molar value. Read-outs that look alike come from different tables or passages of the source.

Legend:
[1] = target: T1, Paxillin/α4 binding (immobilized His-tagged α4 tail, soluble recombinant Paxillin) (Homo sapiens, UniProt P13612+P49023); experiment: Immobilized Paxillin/α4 binding assay (ELISA); details: for pIC50: read-out: IC50 of Paxillin/α4 binding inhibition
T1 construct: The design and production of recombinant cytoplasmic α4 tail polypeptide have been described; made in house; host or cells: E. coli BL21(DE3)pLysS for the α4 tail
T1 sequence (P13612 1002-1032 limits assumed): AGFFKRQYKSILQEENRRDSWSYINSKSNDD
T1 sequence (P49023 1-557 isoform P49023-2): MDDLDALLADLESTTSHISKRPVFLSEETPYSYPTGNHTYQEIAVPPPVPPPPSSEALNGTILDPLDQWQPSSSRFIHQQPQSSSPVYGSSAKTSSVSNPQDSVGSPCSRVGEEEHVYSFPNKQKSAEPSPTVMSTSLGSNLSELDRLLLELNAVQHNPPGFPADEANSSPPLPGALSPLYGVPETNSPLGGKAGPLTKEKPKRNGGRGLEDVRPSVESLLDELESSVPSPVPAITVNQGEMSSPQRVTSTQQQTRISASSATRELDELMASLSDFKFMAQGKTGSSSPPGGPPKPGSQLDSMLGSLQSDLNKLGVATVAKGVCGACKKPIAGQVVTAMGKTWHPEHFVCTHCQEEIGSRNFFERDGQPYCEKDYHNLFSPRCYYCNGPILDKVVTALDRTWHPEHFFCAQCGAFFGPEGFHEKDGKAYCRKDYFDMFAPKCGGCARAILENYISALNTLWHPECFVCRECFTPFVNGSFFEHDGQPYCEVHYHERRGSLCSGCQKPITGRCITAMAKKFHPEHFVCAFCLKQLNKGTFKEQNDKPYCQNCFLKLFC
Procedure: FIG. 4 is a schematic representation of the high throughput screening by ELIZA used herein in which the α4 tail is coated onto a Ni-NTA microtiter plate (a), Paxillin is permitted to bind to α4 (b), first antibody is added (anti-Paxillin) (c), second antibody is added (HRP-conjugated, anti-mouse) (d), and Pax/α4 binding efficiency is measured by detection at 490 nm (e). For binding inhibition, compounds were added during Paxillin incubation (step b). […], zero % inhibition was measured from incubation with Paxillin and no compound.
Initially, roughly 40,000 compounds were screened in approximately 2000 wells (most as a mixture of 10 compounds, 50 μM total concentration) in an ELISA assay using an immobilized His-tagged α4 tail [Pfaff et al. (1998) J. Biol. Chem. 273, 6104-6109] and examining the binding inhibition of soluble recombinant Paxillin [Salgia et al. (1995) J. Biol. Chem. 270, 5039-5047] (FIG. 3).
Paxillin/α4 binding assays were performed as follows. Ni-NTA HisSorb microtiter strips (Qiagen) were coated overnight at 4° C. with purified α4 tail integrin (5 μg/ml, 100 μl per well) in PBS buffer (8 mM Na2HPO4, 1.5 mM KH2PO4, 135 mM NaCl, 2.5 mM KCl [pH 7.4]) supplemented with heat-denatured BSA (0.2%). The plates were washed three times with PBS buffer to remove unbound integrin, blocked with 150 μl of heat-denatured 1% BSA (denatured at 85° C. for 30 minutes and supplemented with 0.05% sodium azide) for 1 hour at room temperature, and washed again three times with PBS buffer.
Purified Paxillin in binding buffer (10% DMSO, 0.2% BSA in PBS buffer) was added to the wells at a concentration of 5 μg/ml in the presence or absence of compounds (1 mM DMSO stock solutions). […] As a control, blocked wells without integrin were examined for binding. After 1 hour at room temperature, the wells were washed three times with PBS buffer, incubated with first antibody (12CA5 ascites, 1/10000 in PBS plus 1% BSA, 100 μL) for 1 hour at room temperature, then with second antibody (100 μl HRP-conjugated anti-mouse [Biosource] in PBS buffer plus 1% BSA) for 1 hour at room temperature. Each well was treated with 50 μl of substrate solution (4 mg o-phenylenediamine, 4 μl of 30% H2O2, 80 mM citrate phosphate [pH 5]) and stopped after 10 minutes at room temperature with 50 μl H2SO4 (2 N). Binding was quantitated on a vmax kinetic microplate reader (Molecular Devices) at 490 nm. Zero % inhibition control was measured with Paxillin and no compound, and 100% inhibition control (background) was measured with no Paxillin and no compound. Each well was duplicated and percent inhibition was averaged.

[2] = target: T2, binding of Paxillin to the α4 tail protein (Homo sapiens, UniProt P13612+P49023); experiment: Integrin tail affinity chromatography binding study
T2 construct: The design and production of recombinant cytoplasmic α4 tail polypeptide have been described; made in house; host or cells: E. coli BL21(DE3)pLysS for the α4 tail
T2 sequence (P13612 1002-1032 limits assumed): as the sequence (P13612 1002-1032 limits assumed) above
T2 sequence (P49023 1-557 isoform P49023-2): as the sequence (P49023 1-557 isoform P49023-2) above
Procedure: FIG. 6 in two parts as 6A and 6B includes results of an affinity chromatography binding study (6A) and scanning densitometry results shown in graphical form for the bound Paxillin (6B). In 6A, recombinant HA-tagged GST-Paxillin (100 nM) was added to Ni^2+-charged resin loaded with α4 tail protein in the absence (lane a) or presence of compound 11-A7B7C7 (lane b, 5 μM; lane c, 25 μM; lane d, 100 μM) or compound 11-A6B6C6 (lane e, 25 μM). Bound protein was collected and separated by SDS-PAGE under reducing conditions, transferred to a nitrocellulose membrane, and stained with HA-tag-specific antibody, 12CA5. In 6B, bound Paxillin was quantified by scanning densitometry of those immunoblots using the NIH Image program. The depicted results are representative from two studies.
In order to confirm the effectiveness and selectivity of Compound 11-A7B7C7 at inhibiting Paxillin/α4 binding, a series of binding studies was conducted using affinity chromatography techniques [Liu S et al. (1999) Nature 402, 676-681; and Pfaff et al. (1998) J. Biol. Chem. 273, 6104-6109]. […] Bound protein was collected and separated by electrophoresis and analyzed by immunoblotting.
Integrin tail affinity chromatography was performed as described [Rose (2001) J. Immunol. 167, 2824-2830]. […]

[3] = test system: integrin α4β1-mediated migration of Jurkat T cells; experiment: Cell migration assay (modified Boyden chamber); format: cell-based; details: Homo sapiens
Procedure: Cell migration was assayed in a modified Boyden chamber assay system as previously described [Rose et al. (2001) J. Immunol. 167, 2824-2830]. […] 167, 2824-2830]. Transwells (Costar, Corning) polycarbonate membranes containing 3.0 μm pores were coated with 5 μg/ml recombinant soluble VCAM-1. Membranes were blocked with 2% BSA in PBS for 30 minutes at room temperature. 2.0×10^5 cells in RPMI-1640 containing the indicated concentration of the compound and a final concentration of 0.1% DMSO were added to the top chamber. SDF-1α (R&D Systems) at a final concentration of 15 ng/ml was added to the bottom chamber. Cells were permitted to migrate for 4 hours at 37° C. Cells in the bottom chamber were enumerated with a hemocytometer, and data are expressed as percent inhibition of migration. Depicted are the mean and range of duplicate determinations from one of two studies with similar results.
The Jurkat E6-1 T leukemic cell line was purchased from American Type Culture Collection (ATCC), Rockville, Md. and cultured in RPMI-1640 (Biowhitaker Inc, Walkersville, Md.) supplemented with 10% FCS (Biowhitaker Inc), 1% glutamine, 50 units/ml penicillin, and 50 μg/ml streptomycin (Sigma Chemical, St Louis, Mo.).
Cell migration was assayed in a modified Boyden chamber assay system. […]

[4] = read-out: Inhibition of Pax/α4 binding (% at 1 μM)

`COC(=O)c1cc2c3c(ccc2[nH]1)N(C(=O)OC(C)(C)C)CC3` [Compound 15, Boc-CDPI-OMe] was tested, and the “Inhibition of Pax/α4 binding (% at 1 μM)” value ([1]; 1 μM) was 3%.

For `COC(=O)c1cc2c3c(ccc2[nH]1)NCC3` [Compound 16, H-CDPI-OMe], the “Inhibition of Pax/α4 binding (% at 1 μM)” value ([1]; 1 μM) was 19%.

In the case of `COC(=O)c1cc2c3c(ccc2[nH]1)N(C(=O)c1cc2c4c(ccc2[nH]1)N(C(=O)c1cc2c5c(ccc2[nH]1)NCC5)CC4)CC3` [Compound 25, H-CDPI3-OMe], the pIC50 [1] was 6.52 and the inhibition at 1 µM [1, 4] was 73%.

For `COC(=O)c1cc2c3c(ccc2[nH]1)N(C(=O)c1cc2c4c(ccc2[nH]1)NCC4)CC3` [Compound 21, H-CDPI2-OMe], the “Inhibition of Pax/α4 binding (% at 1 μM)” value ([1]; 1 μM) was 14%.

For `COC(=O)c1cc2c3c(ccc2[nH]1)N(C(=O)c1cc2c4c(ccc2[nH]1)N(C(=O)OC(C)(C)C)CC4)CC3` [Compound 20, Boc-CDPI2-OMe], the “Inhibition of Pax/α4 binding (% at 1 μM)” value ([1]; 1 μM) was 13%.

With DMABA-CDPI-OMe [Compound 19] the “Inhibition of Pax/α4 binding (% at 1 μM)” value ([1]; 1 μM) was −3%.

`O=C(O)c1cc2c3c(ccc2[nH]1)N(C(=O)c1cc2c4c(ccc2[nH]1)NCC4)CC3` [Compound 23, H-CDPI2-OH] was tested, and the “Inhibition of Pax/α4 binding (% at 1 μM)” value ([1]; 1 μM) was 27%.

`COC(=O)c1cc2c3c(ccc2[nH]1)N(C(=O)c1cc2c4c(ccc2[nH]1)N(C(=O)c1cc2c5c(ccc2[nH]1)N(C(=O)CCCN(C)C)CC5)CC4)CC3` [Compound 11-A7B7C7, DMABA-CDPI3-OMe] was tested, and the “Binding of Paxillin to the α4 tail protein” value ([2]; GST-Paxillin 100 nM, immunoblot) was “markedly reduced”, the “Quantification of bound Paxillin (scanning densitometry)” value ([2]; concentrations as low as 5 μM) was “near background levels” and the inhibition at 15 µM ([3]; Jurkat, highest possible dose, 15 μM, read-out: Maximum inhibition of migration) was roughly 70%. It also gave a pIC50 ([3]; Jurkat T cells, VCAM-1 coated membranes, SDF-1α, 4 hours, read-out: IC50 of inhibition of α4β1-mediated cell migration) of roughly 5.00, an inhibition at 1 µM ([1]; 1 μM, read-out: Inhibition (%) of α4/Paxillin Binding by Deconvoluted Samples of 11-AxByCz) of 76% and a pIC50 [1] of 6.52. The inhibition at 1 µM [1, 4] was 78%.

For DMABA-CDPI2-OMe [Compound 22], the “Inhibition of Pax/α4 binding (% at 1 μM)” value ([1]; 1 μM) was 36%.

With `O=C(O)c1cc2c3c(ccc2[nH]1)NCC3` [Compound 17, H-CDPI-OH] the “Inhibition of Pax/α4 binding (% at 1 μM)” value ([1]; 1 μM) was 11%.

With `CC(C)(C)OC(=O)N1CCc2c1ccc1[nH]c(C(=O)O)cc21` [Compound 18, Boc-CDPI-OH] the “Inhibition of Pax/α4 binding (% at 1 μM)” value ([1]; 1 μM) was 6%.

`O=C(O)c1cc2c3c(ccc2[nH]1)N(C(=O)c1cc2c4c(ccc2[nH]1)N(C(=O)c1cc2c5c(ccc2[nH]1)NCC5)CC4)CC3` [Compound 26, H-CDPI3-OH] was tested, and the “Paxillin/α4 binding inhibition, result in words” value [1] was “only a slight reduction in potency”, the inhibition at 1 µM [1, 4] was 68% and the IC50 ([1]; read-out: inhibition of Pax/α4 binding (IC50 in μM)) was 0.5 µM.

Boc-CDPI3-OMe [Compound 24] was tested, and the “Paxillin/α4 binding inhibition, result in words” value [1] was “substantial loss of activity” and the “Inhibition of Pax/α4 binding (% at 1 μM)” value ([1]; 1 μM) was 25%.
